The target in the assay is T1, CYP3A4 (Homo sapiens, UniProt P08684).
T1 construct: containing 100 μL RLMs or HLMs; tissue Research Institute for Liver Diseases (Shanghai) Co., Ltd; host or cells: pooled human liver microsomes
Put plainly: Cocktail CYP inhibition in human liver microsomes, CYP3A4 (dapsone). The format is in vitro ADME. As to conditions: cocktail method, read-out: IC50 values, CYP3A4 in HLMs. The procedure: We used the cocktail method to study the inhibition activities of DPTM against CYP enzymes in RLMs and HLMs with slight modification. DPTM (250 μmol) was dissolved in 1.25 mL methanol to a solution and then diluted with methanol and water to 2, 10, 20, 100, 200, 400, 1,000 and 2000 μM, respectively. The obtained serial dilutions (10 μL) were added to the incubation mixtures (200 μL total volume), containing 100 μL RLMs or HLMs (final concentration was 5 μg/μL, respectively), 10 μL glucose-6-phosphate (final concentration was 1 mM), 10 μL glucose-6-phosphate dehydrogenase (final concentration was 0.1 U/L), 20 μL potassium phosphate buffer (final concentration was 0.01 M) and 20 μL MgCl2 (final concentration was 2 mM), to give the final concentrations were 0.1, 0.5, 1, 5 10, 20, 50, and 100 μM, respectively. For the groups that in the absence of DPTM, 10 μL methanol (1%) replaced the DPTM and was added to the incubation mixtures. […] The final concentration of methanol in all the incubation mixtures, including the blank group, was […]. […] The determined metabolic substrates were used for calculating the relative enzyme activity (Erel) by the following formula: Erel (%) = Ci(n)/Ci(0) × 100%, in which Ci(n) was the determined metabolic substrates in the presence of varying concentrations of DPTM and Ci(0) was the determined metabolic substrates in the absence of DPTM. […]
Background: Liver microsomes are a subcellular fraction often used to study metabolism.

T1 sequence (P08684 whole entry): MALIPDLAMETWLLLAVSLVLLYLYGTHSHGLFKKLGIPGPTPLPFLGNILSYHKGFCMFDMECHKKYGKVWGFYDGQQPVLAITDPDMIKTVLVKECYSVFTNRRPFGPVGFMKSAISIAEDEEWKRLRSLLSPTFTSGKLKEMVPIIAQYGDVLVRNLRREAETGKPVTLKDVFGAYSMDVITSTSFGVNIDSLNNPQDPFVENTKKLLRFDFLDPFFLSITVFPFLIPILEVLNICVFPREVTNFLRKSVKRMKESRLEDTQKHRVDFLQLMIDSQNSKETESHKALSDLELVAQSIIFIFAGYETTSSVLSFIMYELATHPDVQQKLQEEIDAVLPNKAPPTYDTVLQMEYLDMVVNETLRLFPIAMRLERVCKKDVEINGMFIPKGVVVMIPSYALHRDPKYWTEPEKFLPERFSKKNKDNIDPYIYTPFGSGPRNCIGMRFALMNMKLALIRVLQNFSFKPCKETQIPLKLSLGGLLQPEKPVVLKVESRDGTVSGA

A word on the IC50: it is the point on the concentration scale where inhibition reaches its midpoint. In the case of `C=CC1(C)CC(OC(=O)CSc2nc(N)cc(N)n2)C2(C)C(C)CCC3(CCC(=O)C32)C(C)C1O` (stereo not shown) [DPTM, 14-O-[(4,6-Diaminopyrimidine-2-yl)thioacetyl] mutilin], the IC50 was 8 ± 2 µM.

For the origin of these results see paper PMC7417534, “Cytochrome P450 inhibition potential and initial genotoxic evaluation of 14-O-[(4,6-diaminopyrimidine-2-yl)thioacetyl] mutilin” (Scientific Reports, 2020).
